From patent US20180258428A1, “METHODS AND COMPOSITIONS FOR THE TREATMENT OF A METABOLIC DISORDER” (Children's Hospital Medical Center, priority 2017, published 2018)
Read-outs that look alike come from different tables or passages of the source.

Legend:
primary hepatocytes [1] = assay: Glucose production assay in primary hepatocytes; type: cell-based, mouse; details: primary hepatocytes from L-Ago2 WT and KO mice, 100 or 200 μM
Method: To investigate how Ago2 regulates glucose metabolism, Applicant first examined capacities of hepatic gluconeogenesis in Ago2-deficient primary hepatocytes. […] Applicant additionally asked if Ago2 regulates the fundamental catabolic capacities of hepatocytes. To examine the glycolytic rate, the extracellular acidification rate (ECAR) was determined in primary hepatocytes upon addition of glucose. […] Glycolysis produces pyruvate that is used as an energy source for the citric acid cycle.
Glucose production assay. Mouse primary hepatocytes were cultured in 12-well plates (0.4×10^6 cells per well) in William E supplemented with 10% FBS. Next day, cells were cultured with 1 ml of DMEM (5.5 mM glucose) supplemented with 10% FBS. Post plating for 21 hours, cells were washed twice with PBS and were subjected 3-4 hours to serum starvation with FBS-free DMEM (5.5 mM glucose). After washing twice with PBS, cells were cultured in 0.4 ml of glucose production buffer consisting of glucose-free DMEM (pH 7.4) without phenol red supplemented with 20 mM sodium lactate, 2 mM sodium pyruvate, 2 mM L-glutamine and 15 mM HEPES^62. Cells were incubated at 37° C. for 4.5 hours with or without Bt-cAMP or pCPT-cAMP. Both medium and cells were collected. The glucose concentration was measured with the Autokit Glucose (WAKO) and was normalized by the total protein content.

AMPK [2] = assay: AMPK activation in MEFs with cycloheximide (western blot); type: cell-based, mouse; details: 25 μg/ml cycloheximide for 8 hours
Description: Since Ago2 slicer activity uniquely regulates RNA silencing, Applicant then asked if the slicer activity is involved in the regulation of energy consumption and AMPK activation. […] More importantly, Applicant also observed that AMPK activity, assessed by phosphorylation levels of AMPKα and ACC, was higher in Ago2-deficient MEFs under serum starvation condition (FIG. 16A). […] While activated AMPKα is known to suppress mRNA translation^41, levels of nascent protein synthesis in Ago2-deficient MEFs are increased compared to the cells reconstituted with WT Ago2 (FIG. 16B). To investigate if enhanced protein synthesis reasons AMPK activation in Ago2-deficiency, Applicant treated MEFs with cycloheximide (CHX), a protein synthesis inhibitor, and monitored AMPK activation.
Mouse embryonic fibroblasts. Ago2-deficient fibroblasts reconstituted with Ago2 WT or DA mutant that were kindly provided by Dr. Eric Lai^22. Applicant generated Ago2^fl/fl MEFs through the 3T3 protocol and performed an adenovirus-mediated gene transfer for Cre or LacZ expression to obtain Ago2-deficient MEFs^60. MEF cells were cultured in Dulbecco Modified Eagle Medium (DMEM) (Thermo Fisher Scientific: #11965) supplemented with 10% FBS. For western blot analyses of AMPK, MEF cells were plated at a density of 1×10^5 cells per well of 6-well plate for overnight. […]

MD-miRNAs = assay: Hepatic miRNA and mRNA expression after S961 or S961 plus metformin treatment; type: in vivo, mouse; details: 2 weeks
Description: Expression profiles that assessed the effect of insulin insufficiency on miRNAs in the liver categorized four different classes of miRNAs; (I) dominantly expressed in L-Ago2 WT, (II) induced by S961 in both L-Ago2 WT and KO, (III) suppressed by S961 in both L-Ago2 WT and KO, and (IV) expressed in L-Ago2 KO (FIG. 3d). […] These analyses implicate hepatic Ago2-dependent miRNAs play a role in the disruption of glucose metabolism under the condition of insulin insufficiency.
Quantitative real-time PCR analysis. For mRNA quantification, total RNA was extracted using Trizol reagent (Invitrogen). Total RNA was converted to first strand cDNA using SuperScript® VILO™ cDNA Synthesis Kit (Invitrogen). Quantitative real-time PCR analysis was performed using SYBR Select Master Mix (Applied Biosystems) in a real-time PCR machine (QuantStudio 6 Flex Real-Time PCR system; Thermo Fisher Scientific). To normalize expression data, β-actin mRNA was used as a housekeeping gene. For miRNA quantification, total RNA was extracted using miRNeasy Micro Kit (Qiagen) according to manufacturer's instructions. TaqMan miRNA assays (Life Technologies) were used and real-time PCR were carried out for mature miRNA quantification. Primary miRNAs were quantified using TaqMan […] assays. Sno202 and β-actin were used as internal controls.
High-throughput sequencing of miRNA. […]

[3] = Fasting blood glucose in HFD-fed mice before and after oral metformin; type: in vivo, mouse; details: oral metformin 80 mg/kg/day for 7 days
Method: (§1) Mice. Animal care and experimental procedures were performed according to procedures approved by the animal care committees of our medical center. […] The ALZET osmotic pump were used to deliver 10 nM S961 or vehicle (PBS) in a two-week period. GTTs were performed by intraperitoneal glucose injection (1.5 g/kg) following an overnight food withdrawal for 14 hours. […] Mouse plasma insulin levels were measured using Mouse Ultrasensitive Insulin ELISA kit (ALPCO).

primary hepatocytes [4] = assay: ATP/ADP ratio assay in primary hepatocytes with metformin; type: cell-based, mouse; details: Ago2-deficient primary hepatocytes, 1 mM metformin
Description: To further examine if Ago2 deficiency accelerates cellular energy consumption associated with protein synthesis, Applicant treated primary hepatocytes with metformin, which is an anti-diabetic drug and inhibits mitochondrial respiratory-chain complex I activity restricting ATP generation^40, and measured ATP/ADP levels. […] To directly investigate the effect of Ago2-deficiency on protein synthesis in hepatocytes, Applicant measured the levels of nascent protein synthesis. […] By restricting energy supply using phenformin and rotenone, both of which inhibit mitochondrial respiratory-chain complex I activity, the levels of nascent protein synthesis in Ago2-deficient hepatocytes were equivalent or still higher compared to those in controls (FIG. 6G).
Primary hepatocytes. Hepatocytes were isolated from liver of 12-14 weeks old L-Ago2 WT and 607 L-Ago2 KO mice by a two-step perfusion method as described previously^59 with a slight modification. […]
ATP/ADP ratio assay. The ATP/ADP ratio in the mouse liver extract or primary hepatocytes was determined using a bioluminescent ATP/ADP Ratio Assay Kit (Abcam) according to the manufacturer's instructions. […]

AMPK [5] = assay: AMPK activation in primary hepatocytes with metformin (western blot); type: cell-based, mouse; details: Ago2-deficient primary hepatocytes versus controls, 1 mM metformin
Method: Primary hepatocytes. Hepatocytes were isolated from liver of 12-14 weeks old L-Ago2 WT and 607 L-Ago2 KO mice by a two-step perfusion method as described previously^59 with a slight modification. Briefly, the liver was first perfused with 30 ml of HBSS supplemented with 10 mM HEPES, 0.5 mM EGTA and 5 mM glucose and then digested with 35 mL of Collagenase X 610 (WAKO) at 100 U/mL dissolved in HBSS buffer supplemented with 10 mM HEPES and 5 mM CaCl2. Liver was collected after perfusion and hepatocyte were released and sedimented at 60 G for 2 mM. Hepatocyte suspension was then layered on a 40% percoll solution (GE Healthcare Life Sciences) and centrifuged at 800 G for 10 min. The alive hepatocytes were recovered from the bottom of the tube and seeded on culture plates.
Protein extraction and immunoblot analysis. To prepare protein lysates, cells were washed with cold PBS, followed by lysis in cold mammalian cell lysis buffer [MCLB: 50 mM Tris-HCl (pH 7.4), 150 mM NaCl, 10 mM NaF, 5% glycerol, 1% NP-40, 1% protease and phosphatase inhibitor cocktail]. […]

[6] = for glucose tolerance (GTT): one week; for hepatic glycogen contents (S961-induced glycogenolysis) / serum insulin levels (S961-induced hyperinsulinemia): 2 weeks post S961 with metformin
Method: as §1

CCCC(=O)Nc1ncnc2c1ncn2[C@@H]1O[C@@H]2COP(=O)(O)O[C@H]2[C@H]1OC(=O)CCC [Bt-cAMP, dibutyryl cyclic AMP]
glucose production (primary hepatocytes [1]): similarly induced between genotypes

C[C@@H]1C[C@@H]([C@H](O)CC2CC(=O)NC(=O)C2)C(=O)[C@@H](C)C1 [cycloheximide]
AMPK activation (AMPK [2]; Ago2-deficient MEFs): more robust
AMPK activation (AMPK [2]; WT MEFs): reduction of AMPK activation

CN(C)C(=N)N=C(N)N [metformin]
expression of MD-miRNAs in liver (MD-miRNAs; Ago2-deficient liver): did not affect their expression levels
expression of S961-induced MD-miRNAs in liver (MD-miRNAs; L-Ago2 WT mice): drastic suppression
fasting blood glucose levels ([3]; L-Ago2 KO mice fed HFD): no change upon metformin treatment
fasting blood glucose levels ([3]; L-Ago2 WT mice fed HFD): reduced fasting blood glucose levels
relative ATP/ADP levels (primary hepatocytes [4]): rapidly decreased
levels of metformin-induced AMPK activation (AMPK [5]): significantly higher than that in controls
glucose tolerance (GTT) ([6]; L-Ago2 KO mice treated with S961, metformin 150 mg/kg/day via osmotic pumps): no change in glucose tolerance
hepatic glycogen contents (S961-induced glycogenolysis) ([6]; L-Ago2 KO mice): blunted
serum insulin levels (S961-induced hyperinsulinemia) ([6]; L-Ago2 KO mice): blunted
glucose tolerance (GTT) ([6]; L-Ago2 WT mice treated with S961, metformin 150 mg/kg/day via osmotic pumps): improved glucose tolerance
hepatic glycogen contents (S961-induced glycogenolysis) ([6]; L-Ago2 WT mice): alleviated
serum insulin levels (S961-induced hyperinsulinemia) ([6]; L-Ago2 WT mice): alleviated S961-induced hyperinsulinemia

Nc1ncnc2c1nc(Sc1ccc(Cl)cc1)n2[C@@H]1O[C@@H]2COP(=O)([O-])O[C@H]2[C@H]1O.[Na+] [pCPT-cAMP, 8-(4-Chlorophenylthio)adenosine 3′,5′-cyclic monophosphate]
glucose production (primary hepatocytes [1]): similarly induced between genotypes
